Reference: US20260234185A1, “ANTI-AGING COMPOSITION COMPRISING PEPTIDE COMPLEX AS ACTIVE INGREDIENT” (priority 2023, published 2026)
Where no end group is shown, it is not given here.

How the values were obtained:
IκBα = test: Western blot of IκBα phosphorylation in adipocytes with palmitate-induced inflammation; assay type: cell-based; conditions: 3T3-L1 adipocytes, inflammation induced by 25 μM palmitate; 0.2, 2, 20 μg/mL; 24 hours; Western blot vs PA control (FIGS. 5a, 5b)
Procedure: An experiment was performed to determine whether the peptide complex prepared in Preparation Example 1 induces a decrease in the phosphorylation of IκBα and a decrease in the expression level of the inflammatory cytokine TNFα in adipocytes under an inflammatory state induced by palmitate treatment.
When 3T3-L1 preadipocytes reached 80% confluence, they were seeded at 5×10^3 cells/well in a 96-well plate and used for the experiment. Two days after reaching confluence, the medium was replaced with a differentiation-inducing medium to induce the differentiation into adipocytes. Two days after the induction, the cells were cultured for 2 days in a medium containing 10% FBS and 10 μg/mL insulin, and then the medium was replaced with 10% FBS every days 2 until their differentiation into adipocytes. Once the differentiation was complete, the medium was replaced with a serum-free medium and cultured for 4 hours to induce starvation. After treating with 25 μM palmitate for 30 minutes, the peptide complexes were treated at concentrations of 0.2 μg/mL, 2 μg/mL, and 20 μg/mL and incubated for 24 hours. The control group (PA) was treated only with palmitate but not with the peptide complex. After dissolving by adding dissolution buffer thereto, the proteins obtained by centrifugation at 4° C. and 12,000 rpm for 30 minutes were quantified using a BCA kit. […]

AMPK [1] = test: Western blot of AMPK phosphorylation in myocytes; assay type: cell-based, mouse; conditions: differentiated C2C12 myocytes; 0.2, 2, 20 μg/mL; 24 hours; Western blot (FIGS. 6a, 6b)
Procedure: An experiment was performed to determine whether the peptide complex increases the phosphorylation of AMPK and the expression of SIRT1 and FGF21 proteins in myocytes.
(§1) C2C12 cells, mouse-derived myoblasts, were cultured in DMEM medium containing 1% P/S and 2% BCS. When the cell confluency reached 70-80%, the cells were seeded in a 6-well culture plate. When the cell confluency in the 6-well culture plate reached 100%, the medium was replaced with differentiation medium (1% P/S, 2% horse serum), and thereafter, the differentiation medium (1% P/S, 2% horse serum) was replaced once every two days. Five days after the first replacement, the peptide complex was treated at concentrations of 0.2 μg/mL, 2 μg/mL, and 20 μg/mL and cultured for 24 hours. The group untreated with the peptide complex was used as the control. After dissolving by adding dissolution buffer thereto, the proteins obtained were centrifuged at 4° C. and 12,000 rpm for 30 minutes, and quantified using a BCA kit. The proteins were subjected to sodium dodecyl sulfate-polyacrylamide gel electrophoresis (SDS-PAGE) and then electrotransferred onto a membrane. The membrane with the proteins attached was blocked by treating it with 5% skim milk, and then the primary antibody was reacted overnight at 4° C. […]

AMPK [2] = test: Western blot of AMPK phosphorylation in myocytes with palmitate-induced insulin metabolic disorder; assay type: cell-based, mouse; conditions: C2C12 myocytes in insulin metabolic disorder induced by palmitate treatment; 0.2, 2, 20 μg/mL; 24 hours; Western blot (FIGS. 7a, 7b)
Procedure: An experiment was performed to determine whether the peptide complex increases AMPK phosphorylation and SIRT1 expression levels in myocytes in a state of insulin metabolic disorder induced by palmitate treatment.
as §1

peptide complex: prepared by mixing equal amounts of the peptide of SEQ ID NO: 1 (LKTRN) and the peptide of SEQ ID NO: 2 (KGSATGWMA) (also: mixture of two peptides)
phosphorylation of IκBα (IκBα): reduced
phosphorylation of AMPK (AMPK [1]): increased
phosphorylation of AMPK (AMPK [2]): increased
